Laboratory results published in patent US12600709B2, “Nonpeptide somatostatin type 5 receptor agonists and uses thereof” (Crinetics Pharmaceuticals, Inc., priority 2019, dated 2026).
Read-outs that look alike come from different tables or passages of the source.

Columns and labels:
[1] = biological target: T1, human somatostatin receptor subtype 5 (Homo sapiens, UniProt P35346); assay: cAMP assay for SST5R (inhibition of cAMP in CHO-K1 cells); format: cell-based; conditions: for EC50: inhibition of cAMP via human SST5 receptor, read-out: SST5 potency; for Fold selectivity for SST5 vs SST2: class symbols, SST5 receptor over SST2 receptor
T1 construct: expressed in transfected cells
Procedure, shortened: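 CHO-K1 cells stably expressing human SSTR5 were treated 20 min at 37 °C with compounds plus 1.6 μM NKH477 in HBSS, 0.5 mM HEPES pH 7.4, 0.1% BSA, 0.2 mM IBMX. Lysate cAMP measured by HTRF against a standard curve; EC50 from cAMP-versus-concentration plots.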

[2] = biological target: T2, human somatostatin receptor subtype 2 (Homo sapiens, UniProt P30874); assay: cAMP assay for SST2R (inhibition of cAMP in CHO-K1 cells); format: cell-based; conditions: Table B; inhibition of cAMP via human SST2 receptor; read-out: SST2 potency
T2 construct: expressed in transfected cells
Procedure, shortened: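 CHO-K1 cells stably expressing human SSTR2, plated 4 days prior, treated 20 min at 37° C with 1.6 μM NKH477 plus compound dilutions in HBSS/HEPES pH 7.4/0.1% BSA/0.2 mM IBMX. Lysate cAMP measured by HTRF against standard curve; EC50 from concentration-response.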

T2 sequence (P30874 whole entry): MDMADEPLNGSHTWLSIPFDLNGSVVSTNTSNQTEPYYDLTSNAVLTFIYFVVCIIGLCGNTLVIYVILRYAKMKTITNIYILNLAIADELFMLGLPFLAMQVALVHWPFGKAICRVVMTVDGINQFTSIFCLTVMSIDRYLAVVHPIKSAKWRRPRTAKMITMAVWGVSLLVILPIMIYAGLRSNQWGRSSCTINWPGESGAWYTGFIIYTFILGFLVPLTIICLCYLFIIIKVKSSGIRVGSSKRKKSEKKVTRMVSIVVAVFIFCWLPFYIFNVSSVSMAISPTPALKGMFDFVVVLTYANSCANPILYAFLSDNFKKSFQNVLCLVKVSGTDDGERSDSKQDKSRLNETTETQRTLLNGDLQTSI
T1 sequence (P35346 whole entry): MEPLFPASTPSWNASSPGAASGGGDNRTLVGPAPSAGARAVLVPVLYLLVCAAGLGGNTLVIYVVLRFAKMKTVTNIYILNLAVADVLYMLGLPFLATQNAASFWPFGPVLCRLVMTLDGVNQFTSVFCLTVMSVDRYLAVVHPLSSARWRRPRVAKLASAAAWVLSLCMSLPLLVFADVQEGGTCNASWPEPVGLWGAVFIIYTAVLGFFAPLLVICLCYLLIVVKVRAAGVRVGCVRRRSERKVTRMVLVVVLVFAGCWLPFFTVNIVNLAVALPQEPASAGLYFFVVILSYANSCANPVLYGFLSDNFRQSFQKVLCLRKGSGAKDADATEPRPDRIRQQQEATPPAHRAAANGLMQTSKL

EC50 ([1]; Table A) [nM]	Fold selectivity for SST5 vs SST2 ([1]; Table B)	EC50 ([1]; Table B) [nM]	EC50 [2] [nM]	Structure (SMILES)
< 10	+++ (+++=>500)	< 10	> 1000	COc1cc(C#N)cc(-c2c(C)ncc(C(=O)NC3CCC(F)(F)CC3)c2N2CC[C@](C)(N)C2)c1 [1-268, 4-[(3S)-3-amino-3-methylpyrrolidin-1-yl]-5-(3-cyano-5-methoxyphenyl)-N-(4,4-difluorocyclohexyl)-6-methylpyridine-3-carboxamide]
< 10	+++ (+++=>500)	< 10	100 to 1000	COc1cc(C#N)cc(-c2c(C)ncc(C(=O)NC3CC(F)(F)C3)c2N2CC[C@](C)(N)C2)c1 [1-269, 4-[(3S)-3-amino-3-methylpyrrolidin-1-yl]-5-(3-cyano-5-methoxyphenyl)-N-(3,3-difluorocyclobutyl)-6-methylpyridine-3-carboxamide]
< 10	+++ (+++=>500)	< 10	> 1000	COc1cc(-c2c(C#N)ncc(C(=O)NCC(C)C)c2N2CC[C@](C)(N)C2)ccn1 [1-270, 4-[(3S)-3-amino-3-methylpyrrolidin-1-yl]-2-cyano-2′-methoxy-N-(2-methylpropyl)-[3,4′-bipyridine]-5-carboxamide]
< 10	+++ (+++=>500)	< 10	> 1000	CCCCNC(=O)c1cnc(C#N)c(-c2ccnc(OC)c2)c1N1CC[C@](C)(N)C1 [1-271]
< 10	+++ (+++=>500)	< 10	100 to 1000	Cc1ncc(C(=O)N[C@@H](C)C2CC2)c(N2CC[C@H](N)C2)c1-c1cc(F)cc(Cl)c1 [1-272, 4-[(3S)-3-aminopyrrolidin-1-yl]-5-(3-chloro-5-fluorophenyl)-N-[(1S)-1-cyclopropylethyl]-6-methylpyridine-3-carboxamide]
< 10	+++ (+++=>500)	< 10	100 to 1000	COc1ncc(C(=O)NC23CC(F)(C2)C3)c(N2CC[C@](C)(N)C2)c1-c1cc(F)cc(F)c1 [1-273, 4-[(3S)-3-amino-3-methylpyrrolidin-1-yl]-5-(3,5-difluorophenyl)-N-{3-fluorobicyclo[1.1.1]pentan-1-yl}-6-methoxypyridine-3-carboxamide]
< 10	+++ (+++=>500)	< 10	100 to 1000	COc1cc(C#N)cc(-c2c(C)ncc(C(=O)N[C@@H](C)C(F)(F)F)c2N2CC[C@](C)(N)C2)c1 [1-275, 4-[(3S)-3-amino-3-methylpyrrolidin-1-yl]-5-(3-cyano-5-methoxyphenyl)-6-methyl-N-[(2S)-1,1,1-trifluoropropan-2-yl]pyridine-3-carboxamide]
< 10	++ (++=100 to 499)	< 10	100 to 1000	Cc1ncc(C(=O)N[C@@H](C)C(F)(F)F)c(N2CC[C@H](N)C2)c1-c1cc(F)cc(Cl)c1 [1-276, 4-[(3S)-3-aminopyrrolidin-1-yl]-5-(3-chloro-5-fluorophenyl)-6-methyl-N-[(2S)-1,1,1-trifluoropropan-2-yl]pyridine-3-carboxamide]
< 10	+++ (+++=>500)	< 10	> 1000	Cc1ncc(C(=O)NC2CCC(F)(F)CC2)c(N2CC[C@H](N)C2)c1-c1cc(F)cc(Cl)c1 [1-277, 4-[(3S)-3-aminopyrrolidin-1-yl]-5-(3-chloro-5-fluorophenyl)-N-(4,4-difluorocyclohexyl)-6-methylpyridine-3-carboxamide]
< 10	+++ (+++=>500)	< 10	> 1000	Cc1ncc(C(=O)NC23CC(F)(C2)C3)c(N2CC[C@H](N)C2)c1-c1cc(F)cc(Cl)c1 [1-278, 4-[(3S)-3-aminopyrrolidin-1-yl]-5-(3-chloro-5-fluorophenyl)-N-{3-fluorobicyclo[1.1.1]pentan-1-yl}-6-methylpyridine-3-carboxamide]
< 10	+++ (+++=>500)	< 10	100 to 1000	Cc1ncc(C(=O)N[C@@H](C)C(F)(F)F)c(N2CC[C@](C)(N)C2)c1-c1ccc(F)c(F)c1 [1-279, 4-[(3S)-3-amino-3-methylpyrrolidin-1-yl]-5-(3,4-difluorophenyl)-6-methyl-N-[(2S)-1,1,1-trifluoropropan-2-yl]pyridine-3-carboxamide]
< 10	+++ (+++=>500)	< 10	100 to 1000	COc1ncc(C(=O)N[C@@H](C)C2CC2)c(N2CC[C@H](N)C2)c1-c1cc(F)cc(Cl)c1 [1-282, 4-[(3S)-3-aminopyrrolidin-1-yl]-5-(3-chloro-5-fluorophenyl)-N-[(1S)-1-cyclopropylethyl]-6-methoxypyridine-3-carboxamide]
< 10	+++ (+++=>500)	< 10	100 to 1000	COc1ncc(C(=O)N[C@@H](C)C(F)(F)F)c(N2CC[C@H](N)C2)c1-c1cc(F)cc(Cl)c1 [1-283, 4-[(3S)-3-aminopyrrolidin-1-yl]-5-(3-chloro-5-fluorophenyl)-6-methoxy-N-[(2S)-1,1,1-trifluoropropan-2-yl]pyridine-3-carboxamide]
< 10	+++ (+++=>500)	< 10	100 to 1000	COc1ncc(C(=O)NC2CCC(F)(F)CC2)c(N2CC[C@H](N)C2)c1-c1cc(F)cc(Cl)c1 [1-284, 4-[(3S)-3-aminopyrrolidin-1-yl]-5-(3-chloro-5-fluorophenyl)-N-(4,4-difluorocyclohexyl)-6-methoxypyridine-3-carboxamide]
< 10	+++ (+++=>500)	< 10	100 to 1000	COc1ncc(C(=O)NC2CC(F)(F)C2)c(N2CC[C@H](N)C2)c1-c1cc(F)cc(Cl)c1 [1-285, 4-[(3S)-3-aminopyrrolidin-1-yl]-5-(3-chloro-5-fluorophenyl)-N-(3,3-difluorocyclobutyl)-6-methoxypyridine-3-carboxamide]
< 10	+++ (+++=>500)	< 10	100 to 1000	COc1ncc(C(=O)NC23CC(F)(C2)C3)c(N2CC[C@H](N)C2)c1-c1cc(F)cc(Cl)c1 [1-286, 4-[(3S)-3-aminopyrrolidin-1-yl]-5-(3-chloro-5-fluorophenyl)-N-{3-fluorobicyclo[1.1.1]pentan-1-yl}-6-methoxypyridine-3-carboxamide]
< 10	+++ (+++=>500)	< 10	10 to 100	Cc1ncc(C(=O)N[C@@H](C)C(F)(F)F)c(N2CC[C@](C)(N)C2)c1-c1ccc(F)c(Cl)c1 [1-287, 4-[(3S)-3-amino-3-methylpyrrolidin-1-yl]-5-(3-chloro-4-fluorophenyl)-6-methyl-N-[(2S)-1,1,1-trifluoropropan-2-yl]pyridine-3-carboxamide]
< 10	+++ (+++=>500)	< 10	100 to 1000	Cc1ncc(C(=O)N[C@@H](C)C2CC2)c(N2CC[C@](C)(N)C2)c1-c1ccc(F)c(F)c1 [1-288, 4-[(3S)-3-amino-3-methylpyrrolidin-1-yl]-N-[(1S)-1-cyclopropylethyl]-5-(3,4-difluorophenyl)-6-methylpyridine-3-carboxamide]
< 10	+++ (+++=>500)	< 10	100 to 1000	Cc1ncc(C(=O)N[C@@H](C)C2CC2)c(N2CC[C@](C)(N)C2)c1-c1ccc(F)c(Cl)c1 [1-289, 4-[(3S)-3-amino-3-methylpyrrolidin-1-yl]-5-(3-chloro-4-fluorophenyl)-N-[(1S)-1-cyclopropylethyl]-6-methylpyridine-3-carboxamide]
< 10	++ (++=100 to 499)	< 10	100 to 1000	Cc1cccc2[nH]c(-c3cncc(C(=O)NCC(F)(F)F)c3N3CC[C@](C)(N)C3)nc12 [2-7, 4-[(3S)-3-amino-3-methylpyrrolidin-1-yl]-5-(4-methyl-1H-1,3-benzodiazol-2-yl)-N-(2,2,2-trifluoroethyl)pyridine-3-carboxamide]
< 10	+ (+=10 to 99)	< 10	10 to 100	Cc1cccc2[nH]c(-c3cncc(C(=O)N[C@@H](C)C(F)(F)F)c3N3CC[C@](C)(N)C3)nc12 [2-11, 4-[(3S)-3-amino-3-methylpyrrolidin-1-yl]-5-(4-methyl-1H-1,3-benzodiazol-2-yl)-N-[(2S)-1,1,1-trifluoropropan-2-yl]pyridine-3-carboxamide]
< 10	++ (++=100 to 499)	< 10	100 to 1000	Cc1cccc2[nH]c(-c3cncc(C(=O)NC45CC(C4)C5)c3N3CC[C@](C)(N)C3)nc12 [2-15, 4-[(3S)-3-amino-3-methylpyrrolidin-1-yl]-N-{bicyclo[1,1,1]pentan-1-yl}-5-(4-methyl-1H-1,3-benzodiazol-2-yl)pyridine-3-carboxamide]
